Data as given in US8815919B2, “Oxadiazole derivatives” (Merck Serono SA, priority 2009, dated 2014).
Where a name gives a salt, the structure may show the parent alone. Read-outs that look alike come from different tables or passages of the source.

Columns and labels:
S1P1 [1] = target: T1, S1P1 (Homo sapiens, UniProt P21453); assay: 35S-GTPγS binding on membranes of CHO cells expressing S1P1; type: biochemical; settings: read-out: S1P1/GTPG EC50
Protocol: (§1) Membranes were prepared from CHO cells expressing S1P1 or S1P3 for use in ligand and […] binding studies. Cells were suspended in 50 mM TRIS, pH 7.4, 2 mM EDTA, 250 mM Sucrose (buffer A) and 1× Complete protease inhibitor cocktail (Roche), and disrupted at 4° C. by N2 decompression using a cell disruption bomb (Parr Instrument). Following centrifugation at 1000 RPM for 10 min at 4° C., the supernatant was diluted (2×) in buffer A and centrifuged again at 19000 RPM for 75 min at 4° C. The pellet was then suspended in 10 mM HEPES, pH 7.4, 1 mM EDTA, 250 mM Sucrose (Buffer B), and 1× Complete EDTA-free protease inhibitor cocktail and homogenized using a potter. Membranes were flash frozen in liquid N2 and stored at −80° C.
(§2) Membranes (1 to 10 μg protein) prepared as described above, were incubated in 96-well Scintiplates (PerkinElmer) with test compounds diluted in DMSO, in 140 μl of 20 mM HEPES, pH 7.4, 10 mM MgCl2, 2 μg/well Saponin, 0.2% fatty acid free BSA (Assay buffer), 125 mM NaCl and 1.5 μM GDP. The assay was initiated with the addition of 60 μl of 1.5 nM [35S]-GTPγS (1100 Ci/mmol; GE Healthcare) in assay buffer. After 60 min incubation at 30° C. on a shaker, plates were centrifuged for 10 min at 2000 RPM. Supernatant was discarded and membrane bound radioactivity was measured on a PerkinElmer 1450 MicroBeta counter. Triplicate samples were averaged and expressed as % response relative to S1P activation in absence of compound (n=2).
(§3) The “potency” or the “activity” of the compounds is determined by the EC50 values as evaluated in the above described 35S-GTPγS binding assay.
Target sequence in this assay (P21453 whole entry, species assumed): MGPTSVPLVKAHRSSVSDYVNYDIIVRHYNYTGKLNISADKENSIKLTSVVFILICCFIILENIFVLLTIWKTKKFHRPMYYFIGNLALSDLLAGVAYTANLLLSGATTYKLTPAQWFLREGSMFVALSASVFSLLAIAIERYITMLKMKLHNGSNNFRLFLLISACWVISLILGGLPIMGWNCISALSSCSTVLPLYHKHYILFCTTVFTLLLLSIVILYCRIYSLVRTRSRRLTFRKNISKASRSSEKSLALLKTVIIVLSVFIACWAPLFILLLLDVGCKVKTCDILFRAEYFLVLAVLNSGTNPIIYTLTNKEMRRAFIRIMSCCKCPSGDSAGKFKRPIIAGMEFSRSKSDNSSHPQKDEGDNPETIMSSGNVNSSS

S1P3 [2] = target: T2, S1P3 (Homo sapiens, UniProt Q99500); assay: 35S-GTPγS binding on membranes of CHO cells expressing S1P3; type: biochemical; settings: read-out: S1P3/GTPG EC50
T2 sequence (Q99500 whole entry, species assumed): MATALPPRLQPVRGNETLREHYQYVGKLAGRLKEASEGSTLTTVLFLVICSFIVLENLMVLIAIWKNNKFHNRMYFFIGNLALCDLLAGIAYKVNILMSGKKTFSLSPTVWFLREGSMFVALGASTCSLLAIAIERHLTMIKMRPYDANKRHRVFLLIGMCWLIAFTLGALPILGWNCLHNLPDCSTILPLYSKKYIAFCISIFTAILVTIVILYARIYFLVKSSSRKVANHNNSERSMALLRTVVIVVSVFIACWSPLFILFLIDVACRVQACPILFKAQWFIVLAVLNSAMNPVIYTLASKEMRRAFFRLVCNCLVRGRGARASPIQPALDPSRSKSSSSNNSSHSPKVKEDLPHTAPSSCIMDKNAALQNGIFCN
Protocol: as §1, §2, §3

S1P1 [3] = target: T1, S1P1; assay: Receptor binding assay, [33P]sphingosine 1-phosphate competition, S1P1 membranes, WGA SPA beads
Summary of the method: (§4)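 Competition of [33P]S1P ([…]) on CHO cell membranes with WGA SPA beads in 50 mM HEPES pH 7.5, 5 mM MgCl2, 100 mM NaCl, 0.4% fatty acid-free BSA; 60 min at RT. Triplicates normalised to total binding and nonspecific binding (1000-fold excess unlabeled S1P).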
Target sequence in this assay (P21453 whole entry, species assumed): as the sequence (P21453 whole entry, species assumed) above

S1P3 [4] = target: T2, S1P3; assay: Receptor binding assay, [33P]sphingosine 1-phosphate competition, S1P3 membranes, WGA SPA beads
Summary of the method: as §4

S1P1 [5] = target: T1, S1P1; assay: S1P1 internalization assay in S1P1-U2OS cells (S1P1-EGFP), cell imaging; type: cell-based; parameters: host or cells: U2OS (human bone osteosarcoma epithelial cells), CMV promoter, geneticin selection; settings: 1 hour incubation
Summary of the method: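 U2OS cells stably expressing human S1P1-EGFP, plated overnight in 1% FCS medium, then serum-starved 2 h in 0.1% fatty-acid-free BSA before 1 h compound exposure at 37 °C. After PFA fixation and Hoechst staining, internalization imaged as EGFP spot count per nucleus.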
Target sequence in this assay (P21453 whole entry): as the sequence (P21453 whole entry, species assumed) above

lymphocytes = assay: Model of S1P agonists-induced lymphopenia in mice; type: in vivo; settings: oral
Protocol: (§5) Female C57BL/6 mice (Elevage Janvier) (8 week old) receive S1P agonists by oral route. Blood is sampled in heparinized (100 IU/kg, ip) mice by intracardiac or retroorbital puncture under isoflurane anesthesia 2 to 120 hrs after drug treatment. The white blood cells (lymphocytes and neutrophils) are counted using a Beckman/Coulter counter. The quality of blood sampling is assessed by counting erythocytes and platelets.

[6] = Pharmacokinetics in mouse (PK parameters from lymphopenia study); type: in vivo; settings: 30 mpk
Protocol: as §5
Pharmacokinetics Data: • The pharmacoinetic properties of compound of example 20, N-(3-fluoro-5-{5-[2-(methoxymethyl)-2′-methylbiphenyl-4-yl]-1,2,4-oxadiazol-3-yl}benzyl)-N-methylglycine, hydrochloride salt, are the following: […]

[7] = 96 well-plate, read-out: S1P1 binding Ki (M) (96 well-plate)
[8] = 96 well-plate, read-out: S1P3 binding Ki (M) (96 well-plate)
[9] = 384 well-plate, read-out: S1P3 binding Ki (M) (384 well-plate)
[10] = 384 well-plate, read-out: S1P1 binding Ki (M) (384 well-plate)
[11] = female, C57BL/6, plasma, po, 30 mg/kg

**Q.** For COC(C)c1cc(-c2nc(-c3ccc(CN(C)CC(=O)O)cc3)no2)ccc1-c1ccccc1C (stereo not shown) (as salt: hydrochloride) (hydrate or solvate) [Example 140, N-(4-{5-[2-(1-methoxyethyl)-2′-methylbiphenyl-4-yl]-1,2,4-oxadiazol-3-yl}benzyl)-N-methylglycine, hydrochloride salt], which melting point is on record?
**A.** Its melting point is 179 to 181 °C.

**Q.** With COCc1cc(-c2nc(-c3cccc(CN(C)CC(=O)O)c3)no2)ccc1-c1cccc(F)c1C (as salt: hydrochloride) [Example 35, N-(3-{5-[3′-fluoro-2-(methoxymethyl)-2′-methylbiphenyl-4-yl]-1,2,4-oxadiazol-3-yl}benzyl)-N-methylglycine, hydrochloride salt] as the molecule, how does the melting point read?
**A.** The melting point was 216 to 218 °C.

**Q.** For COCc1cc(-c2nc(-c3cccc(CN(C)CC(=O)O)c3)no2)ccc1-c1ccc(F)cc1C (as salt: hydrochloride) [Example 36, N-(3-{5-[4′-fluoro-2-(methoxymethyl)-2′-methylbiphenyl-4-yl]-1,2,4-oxadiazol-3-yl}benzyl)-N-methylglycine, hydrochloride salt], which melting point is on record?
**A.** The melting point was 214 to 216 °C.

**Q.** For COCc1cc(-c2nc(-c3cccc(CN(C)CC(=O)O)c3)no2)ccc1-c1cc(F)ccc1C (as salt: hydrochloride) [Example 37, N-(3-{5-[5′-fluoro-2-(methoxymethyl)-2′-methylbiphenyl-4-yl]-1,2,4-oxadiazol-3-yl}benzyl)-N-methylglycine, hydrochloride salt], which melting point is on record?
**A.** Its melting point is 177 to 183 °C.

**Q.** With COCc1cc(-c2nc(-c3ccc(CN(C)CC(=O)O)cc3)no2)ccc1-c1ccccc1Cl (as salt: hydrochloride) [Example 118, N-(4-{5-[2′-chloro-2-(methoxymethyl)biphenyl-4-yl]-1,2,4-oxadiazol-3-yl}benzyl)-N-methylglycine, hydrochloride salt] as the molecule, how does the melting point read?
**A.** The melting point was 194 to 200 °C.

**Q.** For COCc1cc(-c2nc(-c3ccc(CN(C)CC(=O)O)c(F)c3)no2)ccc1-c1ccccc1Cl (as salt: hydrochloride) [Example 119, N-(4-{5-[2′-chloro-2-(methoxymethyl)biphenyl-4-yl]-1,2,4-oxadiazol-3-yl}-2-fluorobenzyl)-N-methylglycine, hydrochloride salt], which melting point is on record?
**A.** The melting point was 181 to 188 °C.

**Q.** With Cc1cc(-c2nc(-c3ccc(CN(C)CC(=O)O)cc3)no2)ccc1-c1ccccc1C(F)F (as salt: hydrochloride) [Example 137, N-(4-{5-[2′-(difluoromethyl)-2-methylbiphenyl-4-yl]-1,2,4-oxadiazol-3-yl}benzyl)-N-methylglycine, hydrochloride salt] as the molecule, how does the melting point read?
**A.** Its melting point is 229 to 234 °C.

**Q.** For COCc1cc(-c2nc(-c3cccc(CN(C)CC(=O)O)c3)no2)ccc1-c1ccccc1F [Example 10, N-(3-{5-[2′-fluoro-2-(methoxymethyl)biphenyl-4-yl]-1,2,4-oxadiazol-3-yl}benzyl)-N-methylolycine, hydrochloride salt], which EC50 (S1P1 [1]) is on record?
**A.** Its EC50 is 0.907 nM.

**Q.** And the EC50 (S1P3 [2])?
**A.** The EC50 was 130 nM.

**Q.** And the Ki (S1P1 [3]; [7])?
**A.** The Ki was 1.79e-10 M.

**Q.** What about the Ki (S1P3 [4]; [8]) of the same molecule?
**A.** Its Ki is 2.33e-08 M.

**Q.** And the Ki (S1P3 [4]; [9])?
**A.** The Ki was 1.22e-07 M.

**Q.** What about the EC50 (S1P1 [5]) of the same molecule?
**A.** The EC50 was 3.31 nM.

**Q.** With CC1CCCCN1c1ccc(-c2nc(-c3cccc(COCCC(=O)O)c3)no2)cc1C(F)(F)F (stereo not shown) [Example 12, 3-[(3-{5-[4-(2-methylpiperidin-1-yl)-3-(trifluoromethyl)phenyl]-1,2,4-oxadiazol-3-yl}benzyl)oxy]propanoic acid, hydrochloride salt] as the molecule, how does the EC50 (S1P1 [1]) read?
**A.** Its EC50 is 4.61 nM.

**Q.** What about the EC50 (S1P3 [2]) of the same molecule?
**A.** Its EC50 is 692 nM.

**Q.** What about the Ki (S1P1 [3]; [7]) of the same molecule?
**A.** The Ki was 3.08e-09 M.

**Q.** What about the EC50 (S1P1 [5]) of the same molecule?
**A.** The EC50 was 9.84 nM.

**Q.** For CC1CCCCN1c1ccc(-c2nc(-c3cccc(CN(C)CC(=O)O)c3)no2)cc1C(F)(F)F (stereo not shown) [Example 13, N-methyl-N-(3-{5-[4-(2-methylpiperidin-1-yl)-3-(trifluoromethyl)phenyl]-1,2,4-oxadiazol-3-yl}benzyl)glycine], which EC50 (S1P1 [1]) is on record?
**A.** Its EC50 is 0.96 nM.

**Q.** What about the EC50 (S1P3 [2]) of the same molecule?
**A.** The EC50 was 470 nM.

**Q.** And the Ki (S1P1 [3]; [7])?
**A.** Its Ki is 4.58e-10 M.

**Q.** What about the Ki (S1P3 [4]; [8]) of the same molecule?
**A.** The Ki was 8.95e-08 M.

**Q.** And the Ki (S1P3 [4]; [9])?
**A.** The Ki was 2.75e-07 M.

**Q.** And the EC50 (S1P1 [5])?
**A.** The EC50 was 7.38 nM.

**Q.** Which EC50 (S1P1 [1]) does the source give for COCc1cc(-c2nc(-c3cc(F)cc(CN(C)CC(=O)O)c3)no2)ccc1-c1ccccc1C [Example 20, N-(3-fluoro-5-{5-[2-(methoxymethyl)-2′-methylbiphenyl-4-yl]-1,2,4-oxadiazol-3-yl}benzyl)-N-methylglycine, hydrochloride salt] here?
**A.** Its EC50 is 0.717 nM.

**Q.** What about the EC50 (S1P3 [2]) of the same molecule?
**A.** Its EC50 is 59.9 nM.

**Q.** And the Ki (S1P1 [3]; [7])?
**A.** The Ki was 1.69e-10 M.

**Q.** And the Ki (S1P1 [3]; [10])?
**A.** The Ki was 1.33e-09 M.

**Q.** What about the Ki (S1P3 [4]; [8]) of the same molecule?
**A.** Its Ki is 1.73e-08 M.

**Q.** What about the Ki (S1P3 [4]; [9]) of the same molecule?
**A.** Its Ki is 7.78e-08 M.

**Q.** What about the “% Lymphopenia in mouse at 48 h” value (lymphocytes) of the same molecule?
**A.** The value was 72 ± 5%.

**Q.** What about the “Plasma AUD?” value [6] of the same molecule?
**A.** Its value is 202.751 µg·h/mL.

**Q.** What about the “Lymph node/plasma ratio: 24 h” value ([6]; 24 h) of the same molecule?
**A.** Its value is 0.8.

**Q.** And the “Lymph node/plasma ratio: 48 h” value ([6]; 48 h)?
**A.** Its value is 0.7.

**Q.** And the Kp ([6]; female, C57BL/6, brain, oral, 30 mg/kg, ratio of AUC, read-out: Brain/Plasma-Ratio: AUCZ (h*ng/ml))?
**A.** The Kp was 0.15.

**Q.** What about the Cmax [6, 11] of the same molecule?
**A.** Its Cmax is 10300 ng/mL.

**Q.** What about the Tmax [6, 11] of the same molecule?
**A.** Its Tmax is 4 h.

**Q.** And the half-life [6, 11]?
**A.** Its half-life is 5.3 h.

**Q.** What about the CL/F ([6]; female, C57BL/6, plasma, po, 30 mg/kg, read-out: Cl/F (L/kg/h) (Fz%)) of the same molecule?
**A.** Its CL/F is 0.15 L/kg/h.

**Q.** And the EC50 (S1P1 [5])?
**A.** The EC50 was 5.33 nM.

**Q.** What does the source list for COCc1cc(-c2nc(-c3cc(F)cc(CN(C)CCC(=O)O)c3)no2)ccc1-c1ccccc1C [Example 21, N-(3-fluoro-5-{5-[2-(methoxymethyl)-2′-methylbiphenyl-4-yl]-1,2,4-oxadiazol-3-yl}benzyl)-N-methyl-beta-alanine, hydrochloride salt]?
**A.** EC50 (S1P1 [1]): 0.332 nM; EC50 (S1P3 [2]): 15 nM; Ki (S1P1 [3]; [7]): 1.17e-10 M; Ki (S1P1 [3]; [10]): 9.99e-10 M; Ki (S1P3 [4]; [8]): 1.13e-08 M; Ki (S1P3 [4]; [9]): 1.56e-08 M; EC50 (S1P1 [5]): 4.52 nM
